Source: PubChem BioAssay AID256 (DTP/NCI, 2004)
Toxic doses and inconclusive results are not listed.

System: CD2F1 mice, L1210 leukemia ip, survival T/C
Test: NCI In Vivo Anticancer Drug Screen. Data for tumor model L1210 Leukemia (intraperitoneal) in CD2F1 (CDF1) mice
Details: higher = longer survival
Method in brief: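 Mice carrying a transplanted tumor received test compound or vehicle alone. The value is the measurement in the treated group divided by that in the vehicle-treated control group.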

[1] = endpoint: mean survival time, dose: 100.0 mg/kg/injection, schedule: Q04DX003 (ip), vehicle: saline with Tween-80
[2] = endpoint: mean survival time, dose: 200.0 mg/kg/injection, schedule: Q04DX003 (ip), vehicle: saline with Tween-80
[3] = endpoint: mean survival time, dose: 400.0 mg/kg/injection, schedule: Q04DX003 (ip), vehicle: saline with Tween-80
[4] = endpoint: mean survival time, dose: 75.0 mg/kg/injection, schedule: Q01DX001 (ip), vehicle: saline
[5] = endpoint: mean survival time, dose: 25.0 mg/kg/injection, schedule: Q01DX009 (ip), vehicle: saline with Tween-80
[6] = endpoint: mean survival time, dose: 100.0 mg/kg/injection, schedule: Q01DX009 (ip), vehicle: saline with Tween-80
[7] = endpoint: mean survival time, dose: 200.0 mg/kg/injection, schedule: Q01DX009 (ip), vehicle: saline with Tween-80
[8] = endpoint: mean survival time, dose: 400.0 mg/kg/injection, schedule: Q01DX009 (ip), vehicle: saline with Tween-80

CCN(Cc1cnc2nc(N)nc(N)c2n1)c1ccc(C(=O)NC(CCC(=O)O)C(=O)O)cc1 (stereo not given)
T/C (endpoint: mean survival time, dose: 2.5 mg/kg/injection, schedule: Q01DX009 (ip), vehicle: sodium bicarbonate): 172 % of control | T/C (endpoint: mean survival time, dose: 5.0 mg/kg/injection, schedule: Q01DX009 (ip), vehicle: sodium bicarbonate): 174 % of control | T/C (endpoint: mean survival time, dose: 6.25 mg/kg/injection, schedule: Q01DX009 (ip), vehicle: sodium bicarbonate): 89 % of control | T/C (endpoint: mean survival time, dose: 10.0 mg/kg/injection, schedule: Q01DX009 (ip), vehicle: sodium bicarbonate): 217 % of control | T/C (endpoint: mean survival time, dose: 12.5 mg/kg/injection, schedule: Q01DX009 (ip), vehicle: sodium bicarbonate): 92 % of control

Clc1cc2n[nH]nc2c(Cl)n1
T/C (endpoint: mean survival time, dose: 25.0 mg/kg/injection, schedule: Q01DX009 (ip), vehicle: water): 90 % of control | T/C (endpoint: mean survival time, dose: 50.0 mg/kg/injection, schedule: Q01DX009 (ip), vehicle: water): 90 % of control | T/C (endpoint: mean survival time, dose: 100.0 mg/kg/injection, schedule: Q01DX009 (ip), vehicle: water): 90 % of control

C/C(CCC(CC(=O)O)C(C)C)=N\NC(N)=O (stereo not given)
T/C [1]: 97 % of control | T/C [2]: 97 % of control | T/C [3]: 103 % of control

Cc1cc(=O)cc(C)n1C
T/C [1]: 98 % of control | T/C [2]: 97 % of control | T/C [3]: 94 % of control

O.O=C(O)CN(CCN(CC(=O)O)CC(=O)O)CC(=O)O.[Rh+2]
T/C (endpoint: mean survival time, dose: 100.0 mg/kg/injection, schedule: Q01DX009 (ip), vehicle: saline): 100 % of control | T/C (endpoint: mean survival time, dose: 200.0 mg/kg/injection, schedule: Q01DX009 (ip), vehicle: saline): 94 % of control | T/C (endpoint: mean survival time, dose: 200.0 mg/kg/injection, schedule: Q04DX003 (ip), vehicle: saline sonified): 95 % of control | T/C (endpoint: mean survival time, dose: 400.0 mg/kg/injection, schedule: Q01DX009 (ip), vehicle: saline): 96 % of control

COc1ccc2c(c1O)CNCC2c1ccc(O)c(C)c1 (stereo not given)
T/C [4]: 98 % of control

O=C1c2ccccc2C(=O)c2c(NCCN3CCCCC3)ccc(NCCN3CCCCC3)c21
T/C (endpoint: mean survival time, dose: 8.0 mg/kg/injection, schedule: Q01DX009 (ip), vehicle: acid diluted with saline): 100 % of control | T/C (endpoint: mean survival time, dose: 16.0 mg/kg/injection, schedule: Q01DX009 (ip), vehicle: acid diluted with saline): 102 % of control | T/C (endpoint: mean survival time, dose: 32.0 mg/kg/injection, schedule: Q01DX009 (ip), vehicle: acid diluted with saline): 110 % of control | T/C (endpoint: mean survival time, dose: 64.0 mg/kg/injection, schedule: Q01DX009 (ip), vehicle: acid diluted with saline): 104 % of control

CC1Oc2cc3c(-c4c(O)cc(O)c5c(O)c6c(cc45)OC(C)C(C)C6=O)c(O)cc(O)c3c(O)c2C(=O)C1C (stereo not given)
T/C (endpoint: median survival time, dose: 5.0 mg/kg/injection, schedule: Q01DX009 (ip), vehicle: suspension in saline): 87 % of control | T/C (endpoint: median survival time, dose: 10.0 mg/kg/injection, schedule: Q01DX009 (ip), vehicle: suspension in saline): 91 % of control

Cc1ccccc1NC(=O)CC#N
T/C [5]: 96 % of control | T/C (endpoint: mean survival time, dose: 50.0 mg/kg/injection, schedule: Q01DX009 (ip), vehicle: saline with Tween-80): 96 % of control | T/C [6]: 94 % of control

c1ccc2c(CN3CC3)c[nH]c2c1
T/C (endpoint: mean survival time, dose: 22.0 mg/kg/injection, schedule: Q01DX009 (ip), vehicle: other): 101 % of control | T/C (endpoint: mean survival time, dose: 25.0 mg/kg/injection, schedule: Q01DX009 (ip), vehicle: other): 109 % of control | T/C (endpoint: mean survival time, dose: 33.0 mg/kg/injection, schedule: Q01DX009 (ip), vehicle: other): 103 % of control | T/C [6]: 114 % of control | T/C [7]: 112 % of control

c1ccc(-c2nnnn2-c2ccccc2)cc1
T/C (endpoint: mean survival time, dose: 100.0 mg/kg/injection, schedule: Q04DX003 (ip), vehicle: saline): 101 % of control | T/C (endpoint: mean survival time, dose: 200.0 mg/kg/injection, schedule: Q04DX003 (ip), vehicle: saline): 98 % of control | T/C (endpoint: mean survival time, dose: 400.0 mg/kg/injection, schedule: Q04DX003 (ip), vehicle: saline): 104 % of control

Cc1ccccc1NC(=O)Oc1ccc(C(C)(C)C)cc1
T/C (endpoint: mean survival time, dose: 100.0 mg/kg/injection, schedule: Q04DX002 (ip), vehicle: saline with Tween-80): 97 % of control | T/C (endpoint: mean survival time, dose: 200.0 mg/kg/injection, schedule: Q04DX002 (ip), vehicle: saline with Tween-80): 86 % of control | T/C (endpoint: mean survival time, dose: 400.0 mg/kg/injection, schedule: Q04DX002 (ip), vehicle: saline with Tween-80): 89 % of control

CCCCC1CCC(NC(=O)Nc2ccccc2)CC1 (stereo not given)
T/C [1]: 113 % of control | T/C [2]: 109 % of control | T/C [3]: 105 % of control

Nc1cc(=O)[nH]c(=S)[nH]1.[Pt]
T/C (endpoint: mean survival time, dose: 3.13 mg/kg/injection, schedule: Q04DX003 (ip), vehicle: distilled water + Tween-80): 105 % of control | T/C (endpoint: mean survival time, dose: 6.25 mg/kg/injection, schedule: Q04DX003 (ip), vehicle: distilled water + Tween-80): 100 % of control | T/C (endpoint: mean survival time, dose: 12.5 mg/kg/injection, schedule: Q04DX003 (ip), vehicle: distilled water + Tween-80): 101 % of control | T/C (endpoint: mean survival time, dose: 25.0 mg/kg/injection, schedule: Q04DX003 (ip), vehicle: distilled water + Tween-80): 103 % of control | T/C (endpoint: mean survival time, dose: 50.0 mg/kg/injection, schedule: Q04DX003 (ip), vehicle: distilled water + Tween-80): 101 % of control | T/C (endpoint: mean survival time, dose: 100.0 mg/kg/injection, schedule: Q04DX003 (ip), vehicle: distilled water + Tween-80): 99 % of control | T/C (endpoint: mean survival time, dose: 200.0 mg/kg/injection, schedule: Q04DX003 (ip), vehicle: distilled water + Tween-80): 94 % of control

CCOC(=O)CN(C=O)C(C)c1ccccc1 (stereo not given)
T/C [1]: 98 % of control | T/C [2]: 93 % of control | T/C [3]: 92 % of control

CC(C)CSCC1OC(n2cnc3c(N)nccc32)C(O)C1O (stereo not given)
T/C (endpoint: mean survival time, dose: 3.13 mg/kg/injection, schedule: Q03HX024 (ip), vehicle: distilled water + Tween-80): 100 % of control | T/C (endpoint: mean survival time, dose: 6.25 mg/kg/injection, schedule: Q03HX024 (ip), vehicle: distilled water + Tween-80): 105 % of control | T/C (endpoint: mean survival time, dose: 12.5 mg/kg/injection, schedule: Q01DX005 (ip), vehicle: distilled water + Tween-80): 107 % of control | T/C (endpoint: mean survival time, dose: 12.5 mg/kg/injection, schedule: Q03HX024 (ip), vehicle: distilled water + Tween-80): 96 % of control | T/C (endpoint: mean survival time, dose: 25.0 mg/kg/injection, schedule: Q01DX005 (ip), vehicle: distilled water + Tween-80): 115 % of control | T/C (endpoint: mean survival time, dose: 25.0 mg/kg/injection, schedule: Q03HX024 (ip), vehicle: distilled water + Tween-80): 100 % of control | T/C (endpoint: mean survival time, dose: 50.0 mg/kg/injection, schedule: Q01DX005 (ip), vehicle: distilled water + Tween-80): 100 % of control | T/C (endpoint: mean survival time, dose: 50.0 mg/kg/injection, schedule: Q03HX024 (ip), vehicle: distilled water + Tween-80): 96 % of control | T/C (endpoint: mean survival time, dose: 100.0 mg/kg/injection, schedule: Q01DX005 (ip), vehicle: distilled water + Tween-80): 88 % of control | T/C (endpoint: mean survival time, dose: 100.0 mg/kg/injection, schedule: Q03HX024 (ip), vehicle: distilled water + Tween-80): 86 % of control

O/N=C/c1cc[n+](CCC[n+]2ccc(/C=N/O)cc2)cc1
T/C (endpoint: mean survival time, dose: 5.0 mg/kg/injection, schedule: Q01DX009 (ip), vehicle: saline sonified): 98 % of control | T/C (endpoint: mean survival time, dose: 5.0 mg/kg/injection, schedule: Q04DX003 (ip), vehicle: saline): 103 % of control | T/C (endpoint: mean survival time, dose: 10.0 mg/kg/injection, schedule: Q01DX009 (ip), vehicle: saline sonified): 98 % of control | T/C (endpoint: mean survival time, dose: 10.0 mg/kg/injection, schedule: Q04DX003 (ip), vehicle: saline): 105 % of control | T/C (endpoint: mean survival time, dose: 20.0 mg/kg/injection, schedule: Q01DX009 (ip), vehicle: saline sonified): 95 % of control | T/C (endpoint: mean survival time, dose: 20.0 mg/kg/injection, schedule: Q04DX003 (ip), vehicle: saline): 101 % of control

Cc1nc2ccc(Cl)c(Cl)c2s1
T/C [1]: 106 % of control | T/C [2]: 106 % of control | T/C [3]: 104 % of control

CCCCOc1cc(C(=O)NCCN(CC)CC)c2ccccc2n1
T/C (endpoint: mean survival time, dose: 6.25 mg/kg/injection, schedule: Q01DX009 (ip), vehicle: saline with Tween-80): 102 % of control | T/C (endpoint: mean survival time, dose: 12.5 mg/kg/injection, schedule: Q01DX009 (ip), vehicle: saline with Tween-80): 108 % of control | T/C [5]: 103 % of control

C1=CC2C3C=CC(CC3)C2CC1 (stereo not given)
T/C [6]: 103 % of control | T/C [7]: 98 % of control

COC(=O)C#CC(c1ccccc1)(c1ccccc1)c1ccccc1
T/C [6]: 103 % of control | T/C [7]: 101 % of control | T/C [8]: 109 % of control

NCCS/C=C(\Br)C(=O)OCc1ccc(Br)cc1
T/C [1]: 96 % of control | T/C [2]: 98 % of control

O=C(NC(CCO)C(=O)O)OCc1ccccc1 (stereo not given)
T/C (endpoint: mean survival time, dose: 75.0 mg/kg/injection, schedule: Q04DX003 (ip), vehicle: saline): 95 % of control | T/C (endpoint: mean survival time, dose: 150.0 mg/kg/injection, schedule: Q04DX003 (ip), vehicle: saline): 98 % of control | T/C (endpoint: mean survival time, dose: 300.0 mg/kg/injection, schedule: Q04DX003 (ip), vehicle: saline): 101 % of control

CN(C)c1ccc(C(=C(c2ccc(N(C)C)cc2)c2ccc(N(C)C)cc2)c2ccc(N(C)C)cc2)cc1
T/C [4]: 106 % of control

Cc1ccc(C(=O)CCC(=O)O)c(C)c1
T/C [6]: 100 % of control | T/C [7]: 105 % of control | T/C [8]: 98 % of control

COc1cc(/C=N\NC(C)=O)cc(OC)c1OC
T/C [1]: 101 % of control | T/C [2]: 95 % of control
